Experimental findings from patent US6391305B1, “Conjugates useful in the treatment of prostate cancer” (priority 1999, dated 2002) are described below.

Non-standard residues stand in square brackets, D forms with d. Residues, ends and D or L forms follow the SMILES beside them. *: point of attachment. Doxorubicin(3'-N) = COc1cccc2c1C(=O)c1c(O)c3c(c(O)c1C2=O)C[C@@](O)(C(=O)CO)C[C@@H]3O[C@H]1C[C@H](N*)[C@H](O)[C@H](C)O1; Decanoyl(3,6,9-trioxa) = COCCOCCOCC(=O)*; Glyceroyl(2S) = O=C([C@@H](O)CO)*; Glyceroyl(2R) = O=C([C@H](O)CO)*; hArg = N=C(N)NCCCC[C@H](N)C(=O)O; Chg = N[C@H](C(=O)O)C1CCCCC1; Glycolyl = O=C(CO)*

In series [1] the target is T1, enzymatically active free PSA (Homo sapiens, UniProt P07288).
T1 construct: required for 50% cleavage of the noted oligopeptides with enzymatically active free PSA
T1 sequence (P07288 25-261): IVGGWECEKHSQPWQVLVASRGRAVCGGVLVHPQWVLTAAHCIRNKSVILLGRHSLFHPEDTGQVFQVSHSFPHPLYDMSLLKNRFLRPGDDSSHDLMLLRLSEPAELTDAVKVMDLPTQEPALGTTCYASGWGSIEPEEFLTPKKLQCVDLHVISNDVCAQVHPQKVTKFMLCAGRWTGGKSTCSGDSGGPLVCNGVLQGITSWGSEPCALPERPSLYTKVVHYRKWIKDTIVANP
Briefly: Recognition (cleavage) of oligopeptide-doxorubicin conjugates by free PSA, HPLC. Particulars: DOX conjugate; for Time to 50% Substrate Cleavage by York PSA: PSA digestion buffer pH7.4, 140 mM NaCl, molar ratio to PSA 100 to 1. The series is classed as biochemical. As to the method: If no salt is indicated for the conjugate, the free conjugate was tested.

Series [2] can be described thus: Solubility remarks (INSOLUBLE, PS, PP) printed beside the assay results of Tables 2-4. The series is classed as physicochemical. To be noted: DOX conjugate in cytotoxicity test.
Series [3] relates to LNCap prostate tumor cells. Briefly: In vitro cytotoxicity, Alamar Blue assay, LNCaP. Particulars: 72 HRS, read-out: LNCaP Cell Kill in 72 HRS, {48 HRS} EC 50. The series is classed as cell-based. The protocol:
(§1) The cytotoxicities of the cleaveable oligopeptide-doxorubicin conjugates, prepared as described in Examples 3-6, against a line of cells which is known to be killed by unmodified doxorubicin was assessed with an Alamar Blue assay. Specifically, cell cultures of LNCap prostate tumor cells or DuPRO cells in 96 well plates was diluted with medium containing various concentrations of a given conjugate (final plate well volume of 200 μl ). The cells were incubated for 3 days at 37° C., 20 μl of Alamar Blue is added to the assay well. The cells were further incubated and the assay plates were read on a EL-310 ELISA reader at the dual wavelengths of 570 and 600 nm at 4 and 7 hours after addition of Alamar Blue. Relative percentage viability at the various concentration of conjugate tested was then calculated versus control (no conjugate) cultures. If no salt is indicated, the free conjugate was tested.
Background: Alamar Blue is a resazurin reagent that responds to reducing activity.

In the next series the test system is DuPRO cells. Put plainly: In vitro cytotoxicity, Alamar Blue assay, DuPRO. Particulars: value in parentheses beside the LNCaP value, read-out: DuPRO cell kill EC 50. The series is classed as cell-based. As to the method:
as §1

Take `COCCOCCOCC(=O)N[C@@H](CCCCNC(=N)N)C(=O)N[C@H](C(=O)N[C@@H](CCC(N)=O)C(=O)N[C@@H](CO)C(=O)N[C@@H](CC(C)C)C(=O)N[C@H]1C[C@H](O[C@H]2C[C@](O)(C(=O)CO)Cc3c(O)c4c(c(O)c32)C(=O)c2c(OC)cccc2C4=O)O[C@@H](C)[C@H]1O)C1CCCCC1` [PEG(2)-HomoRChgQ-SL-DOX (3′), PEG(2)-hArgChgGln-SerLeu-DOX (3′)] ({Decanoyl(3,6,9-trioxa)}-[hArg][Chg]QSL-{Doxorubicin(3'-N)}): in series [1] (4 hours), the “Substrate cleavage by York PSA at 4 HOUR” value stood at 12%. For the same compound, the “Solubility remark in Table 4” value in series [2] is listed as “INSOLUBLE”.
`COCCOCCOCC(=O)N[C@@H](CO)C(=O)N[C@@H](CCCCNC(=N)N)C(=O)N[C@H](C(=O)N[C@@H](CCC(N)=O)C(=O)N[C@@H](CO)C(=O)N[C@@H](CC(C)C)C(=O)N[C@H]1C[C@H](O[C@H]2C[C@](O)(C(=O)CO)Cc3c(O)c4c(c(O)c32)C(=O)c2c(OC)cccc2C4=O)O[C@@H](C)[C@H]1O)C1CCCCC1` [PEG(2)-SHomoRChgQ-SL-DOX (3′), PEG(2)-SerhArgChgGln-SerLeu-DOX (3′)] ({Decanoyl(3,6,9-trioxa)}-S[hArg][Chg]QSL-{Doxorubicin(3'-N)}): the “Time to 50% Substrate Cleavage by York PSA” value in series [1] turned out to be 25 min. The figures for the EC50 (in series [3]; in the series with DuPRO cells) were 8.1 µM and over 100 µM, respectively.
As to `COc1cccc2c1C(=O)c1c(O)c3c(c(O)c1C2=O)C[C@@](O)(C(=O)CO)C[C@@H]3O[C@H]1C[C@H](NC(=O)[C@H](CC(C)C)NC(=O)[C@H](CO)NC(=O)[C@H](CCC(N)=O)NC(=O)[C@@H](NC(=O)[C@H](CO)NC(=O)[C@H](CO)NC(=O)[C@H](CO)NC(=O)[C@H](O)CO)C2CCCCC2)[C@H](O)[C@H](C)O1` [N-2(R)-2,3-dihydroxypropionyl-Ser-Ser-Ser-Chg-Gln-Ser-Leu-Dox] ({Glyceroyl(2R)}-SSS[Chg]QSL-{Doxorubicin(3'-N)}), the “Time to 50% Substrate Cleavage by York PSA” value in series [1] stood at 55 min. Moreover, the EC50 was 5.8 µM in series [3] and over 100 µM with DuPRO cells.
On the same counts, the results for `COc1cccc2c1C(=O)c1c(O)c3c(c(O)c1C2=O)C[C@@](O)(C(=O)CO)C[C@@H]3O[C@H]1C[C@H](NC(=O)[C@H](CC(C)C)NC(=O)[C@H](CO)NC(=O)[C@H](CCC(N)=O)NC(=O)[C@@H](NC(=O)[C@H](CO)NC(=O)[C@H](CO)NC(=O)[C@H](CO)NC(=O)CO)C2CCCCC2)[C@H](O)[C@H](C)O1` [2-hydroxyacetyl-SSSChgQ-SL-DOX (3′), N-(2-Hydroxyacetyl)-Ser-Ser-Ser-Chg-Gln-Ser-Leu-Dox] (Glycolyl-SSS[Chg]QSL-{Doxorubicin(3'-N)}) are 25 min, 7.2 µM and over 100 µM.
With `COc1cccc2c1C(=O)c1c(O)c3c(c(O)c1C2=O)C[C@@](O)(C(=O)CO)C[C@@H]3O[C@H]1C[C@H](NC(=O)[C@H](CC(C)C)NC(=O)[C@H](CO)NC(=O)[C@H](CCC(N)=O)NC(=O)[C@@H](NC(=O)[C@H](CO)NC(=O)[C@H](CO)NC(=O)[C@H](O)CO)C2CCCCC2)[C@H](O)[C@H](C)O1` [(d)(2,3-dihydroxypropionyl)SerSerChgGln-SerLeu-DOX (3′)] ({Glyceroyl(2R)}-SS[Chg]QSL-{Doxorubicin(3'-N)}), in series [1], the “Time to 50% Substrate Cleavage by York PSA” value was found to be 120 min. For the same compound, the EC50 was 9.1 µM in series [3] and over 100 µM with DuPRO cells.
`COc1cccc2c1C(=O)c1c(O)c3c(c(O)c1C2=O)C[C@@](O)(C(=O)CO)C[C@@H]3O[C@H]1C[C@H](NC(=O)[C@H](CC(C)C)NC(=O)[C@H](CO)NC(=O)[C@H](CCC(N)=O)NC(=O)[C@@H](NC(=O)[C@H](CO)NC(=O)[C@H](CO)NC(=O)[C@@H](O)CO)C2CCCCC2)[C@H](O)[C@H](C)O1` [(l)(2,3-dihydroxypropionyl)-SerSerChgGln-SerLeu-DOX (3′)] ({Glyceroyl(2S)}-SS[Chg]QSL-{Doxorubicin(3'-N)}): the “Time to 50% Substrate Cleavage by York PSA” value in series [1] stood at 25 min. For the same compound, the EC50 in series [3] was 13 µM; in the series on DuPRO cells, over 100 µM.
Take `COc1cccc2c1C(=O)c1c(O)c3c(c(O)c1C2=O)C[C@@](O)(C(=O)CO)C[C@@H]3O[C@H]1C[C@H](NC(=O)[C@H](CC(C)C)NC(=O)[C@H](CO)NC(=O)[C@H](CCC(N)=O)NC(=O)[C@@H](NC(=O)[C@H](CO)NC(=O)[C@H](CO)NC(=O)[C@H](CCCCNC(=N)N)NC(=O)[C@@H](O)CO)C2CCCCC2)[C@H](O)[C@H](C)O1` [(l)(2,3-dihydroxypropionyl)hArgSerSerChgGlnSerLeu-DOX (3′)] ({Glyceroyl(2S)}-[hArg]SS[Chg]QSL-{Doxorubicin(3'-N)}): the “Time to 50% Substrate Cleavage by York PSA” value in series [1] was 12 min. For the same compound, the values for the EC50 (in series [3]; in the series on DuPRO cells) were 7.5 µM and over 100 µM, respectively.
Consider `COc1cccc2c1C(=O)c1c(O)c3c(c(O)c1C2=O)C[C@@](O)(C(=O)CO)C[C@@H]3O[C@H]1C[C@H](NC(=O)[C@H](CC(C)C)NC(=O)[C@H](CO)NC(=O)[C@H](CCC(N)=O)NC(=O)[C@@H](NC(=O)[C@H](CCCCNC(=N)N)NC(=O)[C@H](CO)NC(=O)[C@@H](O)CO)C2CCCCC2)[C@H](O)[C@H](C)O1` [(l) 2,3-dihydroxypropionyl-SerhArgChgGln-SerLeu-DOX (3′)] ({Glyceroyl(2S)}-S[hArg][Chg]QSL-{Doxorubicin(3'-N)}), for which the “Time to 50% Substrate Cleavage by York PSA” value in series [1] was determined as 15 min. In addition, the EC50 in series [3] is 9.4 µM; with DuPRO cells, over 100 µM.
